{"source": "patent US6949259B1", "about": "“Solid preparations for oral use” (Kyorin Pharmaceutical Co., Ltd., priority 1999, dated 2005)", "origin": "cited, not measured here", "key": {"[1]": {"conditions": "Nomura M. et al, Bioorg. Med. Chem. Lett., 9 (1999), 533-538"}, "[2]": {"conditions": "Nomura M. et al, Bioorg. Med. Chem. Lett., 9 (1999), 533-538", "remark": "listed apart in the source"}}}
{"smiles": "COc1ccc(CC2SC(=O)NC2=O)cc1C(=O)NCc1ccc(C(F)(F)F)cc1", "note": "(racemic) [KRP-297, (±)-5-[(2,4-dioxothiazolidine-5-yl)methyl]-2-methoxy-N-[[4-(trifluoromethyl)phenyl]methyl]-benzamide]", "values": [{"measurement": "blood glucose-lowering action", "setting": "[1]", "result": "potent blood glucose-lowering action"}, {"measurement": "lipid-lowering action", "setting": "[2]", "result": "lipid-lowering action"}]}
